Reference: ChEMBL document CHEMBL1201862, “PubChem BioAssay data set” (2004)
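How tested: cells in 96-well plates exposed to compound for 48 hours at five concentrations. GI50 is the concentration that inhibits growth by half.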 The source made the active and inactive calls. No stated cut-off is given here; in the data, active = GI50 up to about 1.1 µM and inactive = higher.

Assays:
Experiment in all cases: NCI anticancer screen, dose series, 48 h
A498 = system: A498
A549 = system: A549
CAKI-1 = system: CAKI-1
CCRF-CEM = system: CCRF-CEM
HCT-116 = system: HCT-116
HCT-15 = system: HCT-15
HOP-62 = system: HOP-62
HOP-92 = system: HOP-92
IGROV-1 = system: IGROV-1
NCI-H460 = system: NCI-H460
NCI/ADR-RES = system: NCI/ADR-RES
OVCAR-8 = system: OVCAR-8
RPMI-8226 = system: RPMI-8226
SF-268 = system: SF-268
SK-MEL-28 = system: SK-MEL-28
SK-MEL-5 = system: SK-MEL-5
SNB-75 = system: SNB-75
SW-620 = system: SW-620
TK-10 = system: TK-10
SR = system: SR

| Compound | GI50 (A498) | GI50 (A549) | GI50 (CAKI-1) | GI50 (CCRF-CEM) | GI50 (HCT-116) | GI50 (HCT-15) | GI50 (HOP-62) | GI50 (HOP-92) | GI50 (IGROV-1) | GI50 (NCI-H460) | GI50 (NCI/ADR-RES) | GI50 (OVCAR-8) | GI50 (RPMI-8226) | GI50 (SF-268) | GI50 (SK-MEL-28) | GI50 (SK-MEL-5) | GI50 (SNB-75) | GI50 (SW-620) | GI50 (TK-10) | GI50 (SR) |
| --- | --- | --- | --- | --- | --- | --- | --- | --- | --- | --- | --- | --- | --- | --- | --- | --- | --- | --- | --- | --- |
| COC(=O)c1ccc2c(c1)sc1nc(-c3ccc(OC)cc3)cn12 | > 100 µM (inactive) | > 100 µM (inactive) | > 100 µM (inactive) | 39.9 µM (inactive) | > 100 µM (inactive) | > 100 µM | > 100 µM (inactive) | 24.7 µM (inactive) | 48.2 µM (inactive) | > 100 µM (inactive) | > 100 µM (inactive) | 91.4 µM (inactive) | 32.4 µM (inactive) | 83.8 µM (inactive) | > 100 µM (inactive) | 21.1 µM (inactive) | 34.8 µM (inactive) | > 100 µM (inactive) | > 100 µM (inactive) | – |
| O=[N+]([O-])c1ccc(Cl)cc1N/N=C/c1ccnc2ccccc12 | – | > 100 µM (inactive) | > 100 µM (inactive) | > 100 µM (inactive) | 42.9 µM (inactive) | > 100 µM | > 100 µM (inactive) | – | > 100 µM (inactive) | > 100 µM (inactive) | 53.3 µM (inactive) | 46.5 µM (inactive) | > 100 µM (inactive) | > 100 µM (inactive) | > 100 µM (inactive) | > 100 µM (inactive) | 31.1 µM (inactive) | > 100 µM (inactive) | > 100 µM (inactive) | > 100 µM (inactive) |
| CCOC(=O)C1=CC(C)(C(=O)OCC)Nc2c(nc(SC)[nH]c2=O)N1 (stereo unspecified) | > 10 µM (inactive) | > 10 µM (inactive) | > 10 µM (inactive) | > 10 µM (inactive) | > 10 µM (inactive) | > 10 µM | > 10 µM (inactive) | > 10 µM (inactive) | > 10 µM (inactive) | > 10 µM (inactive) | > 10 µM (inactive) | > 10 µM (inactive) | > 10 µM (inactive) | > 10 µM (inactive) | > 10 µM (inactive) | > 10 µM (inactive) | > 10 µM (inactive) | > 10 µM (inactive) | > 10 µM (inactive) | – |
| C1CCNCC1.O=C1NC(=S)N/C1=C/c1ccccc1O | – | > 100 µM (inactive) | > 100 µM (inactive) | > 100 µM (inactive) | > 100 µM (inactive) | > 100 µM | > 100 µM (inactive) | > 100 µM (inactive) | 99.1 µM (inactive) | – | > 100 µM (inactive) | > 100 µM (inactive) | 45.2 µM (inactive) | > 100 µM (inactive) | > 100 µM (inactive) | > 100 µM (inactive) | – | > 100 µM (inactive) | > 100 µM (inactive) | > 100 µM (inactive) |
| CC1(c2ccccc2)CCN(C2CC2)CO1 (stereo unspecified) | – | > 100 µM (inactive) | 18.8 µM (inactive) | 32.4 µM (inactive) | 19.9 µM (inactive) | 16.5 µM | > 100 µM (inactive) | – | 19.6 µM (inactive) | 14.9 µM (inactive) | 20.7 µM (inactive) | 68.1 µM (inactive) | 19.8 µM (inactive) | 16.8 µM (inactive) | 19.7 µM (inactive) | > 100 µM (inactive) | 64.9 µM (inactive) | 19 µM (inactive) | 13.8 µM (inactive) | 25.5 µM (inactive) |
| CCOc1ccc(NCc2cc(OC)c(OC)c(OC)c2)cc1 | – | 0.847 µM (active) | – | – | 0.427 µM (active) | 0.335 µM | 0.753 µM (active) | 5.43 µM (inactive) | 1.49 µM (inactive) | 0.499 µM (active) | 0.324 µM (active) | – | 0.944 µM (active) | 2.29 µM (inactive) | 2.57 µM (inactive) | 0.506 µM (active) | 1.04 µM (active) | 0.35 µM (active) | – | 0.256 µM (active) |
